Test results taken from ChEMBL document CHEMBL4364356, “Deuteration of BTZ043 Extends the Lifetime of Meisenheimer Intermediates to the Antituberculosis Nitroso Oxidation State” (ACS Med Chem Lett, 2019).
The source made the active and inactive calls. The rule behind the calls is not given here.

Key:
[1] = Prodrug conversion in THF/MeOH solution assessed as first order rate constant for protonated/deuterated metabolite (6HD) formation at 0.01 mmol treated with NaBH4 by UV-visible spectroscopic analysis; format: ADME
[2] = Prodrug conversion in THF/MeOH solution assessed as first order rate constant for deuterated metabolite (6D2) formation at 0.01 mmol treated with NaBD4 by UV-visible spectroscopic analysis; format: ADME
[3] = target: T1, Decaprenylphosphoryl-beta-D-ribose oxidase (Mycobacterium tuberculosis (strain ATCC 25618 / H37Rv)) (UniProt P9WJF1); test: Inhibition of DprE1 in Mycobacterium tuberculosis H37Rv assessed as reduction in bacterial growth at 0.02 to 0.03 uM measured in GAS medium
T1 sequence (whole entry): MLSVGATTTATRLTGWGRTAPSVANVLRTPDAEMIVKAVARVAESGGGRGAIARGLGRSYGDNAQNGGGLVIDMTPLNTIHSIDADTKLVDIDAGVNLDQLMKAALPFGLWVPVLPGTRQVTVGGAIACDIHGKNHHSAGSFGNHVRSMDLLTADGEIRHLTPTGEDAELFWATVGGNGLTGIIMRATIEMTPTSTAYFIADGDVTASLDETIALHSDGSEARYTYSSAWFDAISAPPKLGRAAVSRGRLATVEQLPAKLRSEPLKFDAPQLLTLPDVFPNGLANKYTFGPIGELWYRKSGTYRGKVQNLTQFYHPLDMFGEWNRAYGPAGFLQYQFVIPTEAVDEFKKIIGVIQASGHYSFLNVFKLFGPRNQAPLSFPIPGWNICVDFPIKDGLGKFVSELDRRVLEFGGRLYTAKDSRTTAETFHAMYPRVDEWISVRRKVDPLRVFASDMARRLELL

[4] = Drug recovery in THF/MeOH solution measured after 3 days by 1H-NMR analysis; details: tested as the 2H-labelled form
[5] = Prodrug conversion in THF/MeOH solution assessed as first order rate constant for protonated metabolite (6H2) formation at 0.01 mmol treated with NaBH4 by UV-visible spectroscopic analysis; format: ADME
[6] = target: T1, Decaprenylphosphoryl-beta-D-ribose oxidase (Mycobacterium tuberculosis (strain ATCC 25618 / H37Rv)); test: Inhibition of DprE1 in Mycobacterium tuberculosis H37Rv assessed as reduction in bacterial growth at <0.004 uM measured in MABA media

Structure (SMILES)	K [1] [×10⁻⁵ /s]	K [2] [×10⁻⁵ /s]	inhibition [3]	inhibition ([3]; tested as the 2H-labelled form)	Drug recovery [4] [%]	K [5] [×10⁻⁵ /s]	inhibition [6]	inhibition ([6]; tested as the 2H-labelled form)
[2H]c1c(C(F)(F)F)c([2H])c2c(=O)nc(N3CCC4(CC3)OC[C@H](C)O4)sc2c1[N+](=O)[O-]	2.8	1.2						
C[C@H]1COC2(CCN(c3nc(=O)c4cc(C(F)(F)F)cc([N+](=O)[O-])c4s3)CC2)O1 [BTZ-043]			Active	Active	95	5.6	Active	Active
